Structures are written as SMILES. pKi: −log10 of the molar value.

In the experiment the target is T1, cloned human CRTH2 receptor (Homo sapiens, UniProt Q9Y5Y4).
T1 construct: purchased Biosignal; host or cells: HEK-293 cells stably expressing human CRTH2 and G-alpha-16 (membranes)
T1 sequence (Q9Y5Y4 1-395): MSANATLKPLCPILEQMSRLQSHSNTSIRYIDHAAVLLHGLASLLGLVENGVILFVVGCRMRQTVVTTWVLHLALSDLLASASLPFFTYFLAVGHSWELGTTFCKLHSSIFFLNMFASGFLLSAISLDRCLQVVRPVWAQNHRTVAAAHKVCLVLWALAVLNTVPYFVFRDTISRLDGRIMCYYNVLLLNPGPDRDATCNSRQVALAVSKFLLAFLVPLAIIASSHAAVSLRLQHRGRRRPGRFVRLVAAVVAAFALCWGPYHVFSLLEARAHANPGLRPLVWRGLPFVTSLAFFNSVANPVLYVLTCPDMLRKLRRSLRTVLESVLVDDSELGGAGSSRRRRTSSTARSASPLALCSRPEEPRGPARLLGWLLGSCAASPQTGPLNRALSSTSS
The experiment in a line: Radioligand membrane binding assay: inhibition of [3H] PGD2 binding to CRTH2 (Scintillation Proximity Assay). The settings on record: inhibition of [3H] PGD2 binding to membranes of HEK-293 cells stably expressing human CRTH2; SPA; 10 point curve from 10 μM; room temperature, approximately 2 hours. The method, then:
This radioligand membrane binding assay evaluates the ability of compounds to inhibit [^3H] Prostaglandin D2 (PGD2) binding to the cloned human CRTH2 receptor stably expressed in HEK-293 cells (expressing human CRTh2 receptor and α subunit or the heteronimeric G protein 16 were prepared by Biosignal Company) using Scintillation Proximity Assay.
A binding buffer containing 50 mM Tris-HCl (pH 7.5), 5 mM MgCl2 and 1 mM EDTA was prepared immediately prior to performing the assay. A bead/membrane solution at twice the final assay concentration comprising membranes (membranes bought from Biosignal) from the HEK-293 cells cloned to express CRTH2 receptor bound to and [3H] PGD2 at twotimes the final assay concentration were prepared and stored on ice before adding to wells. Cold PGD2 at twenty times the final assay concentration was prepared and stored on ice before adding to wells defining non-specific binding (NSB) corning plates #3653 were used for this assay.
10 mM stock concentrations of compounds in 100% DMSO were prepared and stored at room temperature. A 10 point concentration response curve was then constructed for each compound, starting at 10 μM (final assay concentration). The compounds were prepared at 40 times final assay concentrations with nine consequent-3-fold dilutions.
0.1 μl of each concentration of compound were added to the appropriate well of the 384 plate and 2 μl of cold PGD2 was added into the wells defining NSB. 20 μl of [^3H] PGD2 and then 20 μl of 2× of bead/membrane solution were then added to each well.
The plates were allowed to incubate at room temperature for approximately 2 hours and then counted on Packard Topcount using SPA tritium protocol for 1 minute/well.
The percent inhibition of PGD2 binding (PGD2 used at the KD value or lower) to the HEK-293 cell membranes was determined, the assay was always run as duplicate for n=1 for a total of n=2.
(Scintillation proximity formats need no separation of bound from free tracer.)

As usually defined, the pKi is −log10 of the Ki, conventionally taken in molar units. `CCC(=O)N(c1ccccc1)[C@@H]1C[C@H](C)N(C(=O)c2ccc(-c3ccc([N+](=O)[O-])cc3)o2)c2ccccc21` (racemic) [Compound A-144, (±)-Cis-N-{2-methyl-1-[5-(4-nitro-phenyl)-furan-2-carbonyl]-1,2,3,4-tetrahydro-quinolin-4-yl}-N-phenyl-propionamide] showed a negative logarithm of the Ki (pKi) of more than 5.00.
Molecule `COc1ccc(C(=O)N2c3ccccc3[C@H](N(C(C)=O)c3cccc(CN)c3)C[C@@H]2C)cc1` [Compound C-38, (2S,4R)-N-(3-Aminomethyl-phenyl)-N-[1-(4-methoxy-benzoyl)-2-methyl-1,2,3,4-tetrahydro-quinolin-4-yl]-acetamide] had a pKi of more than 5.00.
As to `CC(=O)N(c1ccccc1)[C@@H]1C[C@H](C)N(C(=O)c2sc(C)nc2C)c2ccccc21` (racemic) [Compound A-67, (±)-Cis-N-[1-(2,4-dimethyl-thiazole-5-carbonyl)-2-methyl-1,2,3,4-tetrahydro-quinolin-4-yl]-N-phenyl-acetamide], the pKi is more than 5.00.
With `COc1cccc(C(=O)N2c3ccccc3[C@H](N(C(=O)c3ccc(Cl)cc3)c3ccccc3)C[C@@H]2C)c1` (racemic) [Compound A-3, (±)-Cis-4-chloro-N-[1-(3-methoxy-benzoyl)-2-methyl-1,2,3,4-tetrahydro-quinolin-4-yl]-N-phenyl-benzamide] the figure was more than 5.00; with `CC(=O)N(c1ccc(Cl)cc1)[C@@H]1C[C@H](C)N(C(=O)c2ccc(/C=C/C(=O)O)cc2)c2ccccc21` [Compound C-33, (2S,4R)-3-(4-{4-[Acetyl-(4-chloro-phenyl)-amino]-2-methyl-3,4-dihydro-2H-quinoline-1-carbonyl}-phenyl)-acrylic acid], more than 5.00.
For the molecule `CCC(=O)N(c1ccc(Cl)cc1)[C@@H]1C[C@H](COC)N(C(=O)c2ccc(F)cc2)c2ccccc21` (racemic) [Compound B-107, (±)-Cis-N-(4-chloro-phenyl)-N-[1-(4-fluoro-benzoyl)-2-methoxymethyl-1,2,3,4-tetrahydro-quinolin-4-yl]-propionamide], the pKi was more than 5.00.
`CCC(=O)N(c1ccccc1)C1CC(C)N(C(=O)C2CN(Cc3ccccc3)CCO2)c2ccccc21` (racemic) [Compound A-81, (±)-Cis-N-[1-(4-benzyl-morpholine-2-carbonyl)-2-methyl-1,2,3,4-tetrahydro-quinolin-4-yl]-N-phenyl-propionamide] gave a negative-log Ki (pKi) of more than 5.00.
Take `CCC(=O)N(c1ccc(C(F)(F)F)cc1)[C@@H]1C[C@H](C)N(C(=O)c2ccc(F)cc2)c2ccccc21` (racemic) [Compound B-13, (±)-Cis-N-[1-(4-Fluoro-benzoyl)-2-methyl-1,2,3,4-tetrahydro-quinolin-4-yl]-N-(4-trifluoromethyl-phenyl)-propionamide]: the pKi was more than 5.00.
`CC(=O)N(c1ccccc1)[C@@H]1C[C@H](C)N(C(=O)c2ccccc2C)c2ccccc21` (racemic) [Compound A-153, (±)-Cis-N-[2-methyl-1-(2-methyl-benzoyl)-1,2,3,4-tetrahydro-quinolin-4-yl]-N-phenyl-acetamide] had a pKi of more than 5.00.
Take `CC(=O)N(c1ccccc1)[C@@H]1C[C@H](C)N(C(=O)c2c(C)noc2C)c2ccccc21` (racemic) [Compound A-154, (±)-Cis-N-[1-(3,5-dimethyl-isoxazole-4-carbonyl)-2-methyl-1,2,3,4-tetrahydro-quinolin-4-yl]-N-phenyl-acetamide]: the negative logarithm of the Ki (pKi) is more than 4.22.
`CCC(=O)N(c1ccc(Cl)cc1)[C@@H]1C[C@H](C)N(C(=O)c2ccc(F)cc2)c2ccc(OCCN(CC)CC)cc21` (racemic) [Compound B-63, (±)-Cis-N-(4-Chloro-phenyl)-N-[6-(2-diethylamino-ethoxy)-1-(4-fluoro-benzoyl)-2-methyl-1,2,3,4-tetrahydro-quinolin-4-yl]-propionamide] had a pKi of more than 5.00.

The values are drawn from patent US7504508B2, “PGD2 receptor antagonists for the treatment of inflammatory diseases” (Millennium Pharmaceuticals, Inc., priority 2002, dated 2009).
